Test results from patent publication US10836954B2 (priority 2015, dated 2020).

Key:
Pseudomonas Fluorescens [1] = assay type: cell-based; details: breaker 1.0 gpt added to 0.25 gpt biocide; 1% KCl water pH 7.7, 77° F., 1 h and 5 h
Protocol: 500 mL of 1% KCl water, buffered with sodium bicarbonate to pH 7.7 was inoculated with 10 mL of a Nutrient Broth containing live Pseudomonas f. and blended on a Waring lab blender at 2000 rpm for 5 minutes. After blending, it was separated into 30 mL samples in separate bottles. The first and last bottles were left without biocide or breaker to act as controls. The remaining samples were treated with varying concentrations of biocide and oxidizing breakers.
(§1) Biocidal activity analysis was completed using a […]® PhotonMaster™ luminometer and Quench-Gone™ Organic Modified (QGO-M) ATP test kit. At the initial time (Time 0), both control samples were tested using the ATP kit. All samples were then incubated at 77° F. All samples (5 mL) were then tested using the ATP kit at one hour and again at 5 hours.

Pseudomonas Fluorescens [2] = details: well water, 72° F.
Protocol: The biocidal activity of THPS/oxidizing breaker compositions against Pseudomonas Fluorescens was examined. In the first experiment, 2 L of well water was inoculated with 4 mL of a Nutrient Broth containing live Pseudomonas f. and stirred using an overhead mixer at 2000 rpm. After thorough mixing, and with the mixer running, 150 mL samples were taken with a syringe and inserted into separate bottles. The first and last bottles were left without biocide or breaker to act as controls. The remaining samples were treated with varying concentrations of biocide and oxidizing breakers.
as §1, with “left” for “incubated”, “ambient lab temperature (72° F.).” for “77° F.”, “(20 mL each)” for “(5 mL)”, “and” for “and again”, “24” for “5”

For OO [hydrogen peroxide 7%, hydrogen peroxide], which “effect of added breaker on decrease in microbial activity (ATP analysis)” value (Pseudomonas Fluorescens [1]) is on record?
The value was “may be accelerated or enhanced slightly”.

Which “effect of added breaker on decrease in microbial activity (ATP analysis)” value (Pseudomonas Fluorescens [1]) does the source give for sodium chlorite [sodium chlorite 8%] here?
The value was “may be accelerated or enhanced slightly”.

“tetrakis(hydroxymethyl)phosphonium sulphate [THPS]” was tested. Which “compatibility of biocidal activity with oxidizing breakers (ATP analysis)” value (Pseudomonas Fluorescens [2]; THPS 20% 0.25 or 0.50 gpt with sodium persulfate, hydrogen peroxide 7% or sodium chlorite 8%, 1 h and 24 h) did it give?
Its value is “no apparent incompatibility”.

What about the “effect of addition of the breakers on biocidal properties (ATP analysis)” value (Pseudomonas Fluorescens [2]; THPS concentration of 0.25 gpt, 1 h and 24 h (FIG. 5)) of the same molecule?
The value was “appears to enhance or accelerate the biocidal properties”.
